A short description of the assay: Second order kinetic constants of the reactions between CC49-TCO constructs and ^177Lu-28. It is filed as physicochemical. Conditions: new TCOs conjugated to CC49, reaction with ^177Lu-28, procedures of Example 5. How it is done: Typically, 1 mg CC49 (5 mg/mL solution in PBS) was modified with 0.6 molar (for kinetic measurements) or 10 molar eq. (for in vivo studies) of TCO-NHS constructs in a total volume of 250 μL PBS. The pH was adjusted to 9 with 1 M sodium carbonate buffer. The reactions were carried out under agitation for 30 min at RT in the dark. Subsequently, the TCO-modified mAbs were extensively washed with PBS using Amicon Ultra-15 centrifugal devices. The numbers of TCO groups per antibody were determined with a tetrazine titration, outlined below.
Tetrazine-DOTA 28 was radiolabeled with carrier-added ^177Lu. mAb (25 μg) modified with ca. 0.6 molar eq. TCO was reacted with 3 molar eq. of ^177Lu-28 (0.5 nM). mAb (25 μg) modified with ca. 10 molar eq. TCO was reacted with 15 molar eq. of ^177Lu-28 (2.5 nM). The reactions were carried out in 50 μL PBS pH 7.4 at 37° C. for 10 min. The reaction mixtures were analyzed by SDS-PAGE and phosphor imager and the reaction yields were determined from the radioactivity in the bands corresponding to the mAb. The counts were quantified with AIDA Image Analyzer software (Raytest).
Tetrazine-DOTA 28 was radiolabeled with carrier-added ^177Lu at a specific activity of 3 MBq/μg. ^177Lu-28 (33 nM) was reacted with increasing concentrations of CC49 modified with 1 eq. of TCO (0.33, 1, and 1.67 μM) in 200 μL PBS, pH 7.4 at 37° C. for 5 min. At selected times (15, 30, 45, 60, 90, 120, 180, and 300 sec) a 20 μL sample was withdrawn and quenched with tetrazine 6 (FIG. 5; described in Rossin et al. Angew Chem Int Ed 2010, 49, 3375) (1.5 μL, 5 mg/mL in DMF). Aliquots of each mixture were analyzed by SDS-PAGE and phosphor imager and the cycloaddition yields were determined from the radioactivity in the bands corresponding to the mAb. The counts were quantified with AIDA Image Analyzer software (Raytest).
The newly synthesized TCO constructs were evaluated with respect to their reactivity towards tetrazine 28. The procedures are described in Example 5.

For `CC1(CC(=O)ON2C(=O)CCC2=O)CC/C=C/CCC1` (stereo not shown) [compound 58, (E-Major,minor)-2,5-Dioxopyrrolidin-1-yl 2-(1-methylcyclooct-4-en-1-yl)acetate], the “Second order kinetic constant” value is 323500 ± 43320 M⁻¹ s⁻¹.

For the origin of these results see US9463256B2, “Pretargeting kit, method and agents used therein” (KONINKLIJKE PHILIPS N.V., priority 2010, dated 2016).
